System: FD-MSCs
Assay: Beige adipogenic precursor markers in FD-MSCs (flow cytometry, immunostaining, qPCR)
Type: cell-based, human
Conditions: SB pretreatment 2 days
Description: All assays were performed between 7 and 15 passages. For osteocyte differentiation, mature MSCs were grown in 24 well culture plates to 100% confluency in MesenCult-ACF and induced to differentiate in OsteoLife Complete Osteogenesis Medium (Lifeline Cell Technology) for 21 days prior to staining with Lifeline Alizarin Red Stain to visualize calcium deposition. For chondrocyte differentiation. For beige adipogenic precursor generation, cells were grown in 24 well culture plates to 90% confluence and treated with 5 uM SB413542 (Sigma) and 10 nM human IL-4 (Peprotech) for 2 days. For beige adipogenic induction, adipogenic precursors are differentiated for 3 days with adipogenic medium consisting of T3 (2 nM), insulin (170 nM), rosiglitazone (1 μM), SB413542 (5 uM), IBMX (0.5 mM), dexamethasone (5 μM) and indomethacin (125 μM) in EGM-2 medium (Lonza) supplemented with the BulletKit minus FGF2 (modified from^33). Thereafter, cells are maintained in adipogenic medium without IBMX, dexamethasone and indomethacin. The medium was changed every 3 days and adipocytes were fully differentiated by 9-12 days as determined by lipid accumulation and peak expression of UCP1.
Cell Isolation, Expansion and Differentiation of Interscapular Brown Adipose Tissue Preadipocytes • 1. Prior to adipose cell isolation, warm DMEM, FBS and cell wash buffer to room temperature. • 2. In a laminar flow cabinet for cell culture, place 5 g of adipose tissue on a 100×20 mm dish. Suspend tissue in 1 mL of Adipose Tissue Dissociation Kit enzyme digest cocktail and finely mince with a razorblade. • 3. Transfer cell suspension slurry to a 5 mL polystyrene round bottom tube and add an additional 1.5 mL of enzyme digest cocktail to tube. • 4. Incubate tube at 37° C. on a rotating nutator for 30 minutes. During incubation period, briefly vortex sample for 5 s in 10-minute intervals. • 5. Transfer cells to a 15 mL tube and add 5 mL of DMEM. Filter cell suspension through a 100 μm strainer into a new 15 mL tube and centrifuge at 300 g for 5 minutes to form a pellet. • 6. Remove supernatant and leave behind […] of DMEM. […]

**Q.** Which “cell surface expression of PDGFRα and MSCA1” value does the source give for NC(=O)c1ccc(-c2nc(-c3ccc4c(c3)OCO4)c(-c3ccccn3)[nH]2)cc1 [SB, SB431542] here?
**A.** increased

**Q.** And the “nuclear accumulation of EBF2” value?
**A.** significantly increased
